What was measured:
Mice = experiment: analgesic activity by pressure stimulation method (tail base); format: in vivo; settings: dose that induced 50 percent of % of MPE; for ED50(mg/kg) p.o.: oral administration; for ED50(mg/kg) s.c.: subcutaneous administration (skin in the backs)
Experimental: The analgesic activities of the peptide derivatives of the present invention were evaluated by pressure stimulation method. Mice were subjected to pressure stimulation at the bases of their tails at the rate of 10 mmHg/second. […] For the experiments, mice that normally responded to a pressure of 40-50 mmHg were used. The maximum stimulating pressure was 100 mmHg. Analgesic activity was calculated as percent of maximum possible effect (% of MPE) according to the equation: % of MPE =(Pt - Po)/(Pc - Po)× 100 [formula] wherein Po is the pain reaction threshold before the administration of a drug; Pt is the pain reaction threshold "t" minutes after the administration of the drug; and Pc is the maximum stimulating pressure. ED50 values were calculated based on dose response curves as doses that induced 50 percent of % of MPE and analgesic activities of the drugs were compared.

[1] = intraventricular administration, relative to morphine; cited from earlier work
[2] = cited from earlier work

CN(CCC(=O)O)C(=O)[C@H](Cc1ccccc1)NC(=O)[C@@H](CCCNC(=N)N)NC(=O)[C@H](Cc1ccc(O)cc1)NC(=N)N [H2NC(NH)-Tyr-D-Arg-Phe-N(CH3)CH2CH2COOH]
ED50(mg/kg) p.o. (Mice): 6.6 mg/kg
ED50(mg/kg) s.c. (Mice): 0.10 mg/kg

CN(CC(=O)O)C(=O)[C@H](Cc1ccccc1)NC(=O)[C@@H](CCCNC(=N)N)NC(=O)[C@H](Cc1ccc(O)cc1)NC(=N)N [H2NC(NH)-Tyr-D-Arg-Phe-N(CH3)CH2COOH]
ED50(mg/kg) p.o. (Mice): 17.8 mg/kg
ED50(mg/kg) s.c. (Mice): 0.39 mg/kg

Dermorphine
analgesic effect higher than morphine [1]: about 1,000 fold

CCN(CCC(=O)O)C(=O)[C@H](Cc1ccccc1)NC(=O)[C@@H](CCCNC(=N)N)NC(=O)[C@H](Cc1ccc(O)cc1)NC(=N)N [H2NC(NH)-Tyr-D-Arg-Phe-N(CH2CH3)CH2CH2COOH]
ED50(mg/kg) p.o. (Mice): 16.0 mg/kg
ED50(mg/kg) s.c. (Mice): 0.15 mg/kg

COC(=O)CCN(C)C(=O)[C@H](Cc1ccccc1)NC(=O)[C@@H](CCCNC(=N)N)NC(=O)[C@H](Cc1ccc(O)cc1)NC(=N)N [H2NC(NH)-Tyr-D-Arg-Phe-N(CH3)CH2CH2COOCH3]
ED50(mg/kg) p.o. (Mice): 8.9 mg/kg
ED50(mg/kg) s.c. (Mice): 0.12 mg/kg

N=C(N)NCCC[C@@H](NC(=O)[C@H](Cc1ccc(O)cc1)NC(=N)N)C(=O)N[C@@H](Cc1ccccc1)C(=O)NCCCO [H2NC(NH)-Tyr-D-Arg-Phe-NHCH2CH2CH2OH]
ED50(mg/kg) s.c. (Mice): 0.88 mg/kg

Tyr-D-Arg^2-Phe-Sarcosine [TAPS]
potency relative to dermorphin ([2]; opioid effects such as analgesia, relative to dermorphin): about 6 times
duration of sufficient analgesic effects ([2]; oral administration): 3 h

N=C(N)NCCC[C@@H](NC(=O)[C@H](Cc1ccc(O)cc1)NC(=N)N)C(=O)N[C@@H](Cc1ccccc1)C(=O)NCCC(=O)O [H2NC(NH)-Tyr-D-Arg-Phe-NHCH2CH2COOH]
ED50(mg/kg) p.o. (Mice): 5.8 mg/kg
ED50(mg/kg) s.c. (Mice): 0.14 mg/kg

CN(CC(N)=O)C(=O)[C@H](Cc1ccccc1)NC(=O)[C@@H](CCCNC(=N)N)NC(=O)[C@H](Cc1ccc(O)cc1)NC(=N)N [H2NC(NH)-Tyr-(D)Arg-Phe-N(CH3)CH2CONH2]
ED50(mg/kg) s.c. (Mice): 0.27 mg/kg

CN(C)C(=O)[C@H](Cc1ccccc1)NC(=O)[C@@H](CCCNC(=N)N)NC(=O)[C@H](Cc1ccc(O)cc1)NC(=N)N [H2NC(NH)-Tyr-(D)Arg-Phe-N(Me)2]
ED50(mg/kg) s.c. (Mice): 1.22 mg/kg

N=C(N)NCCC[C@@H](NC(=O)[C@H](Cc1ccc(O)cc1)NC(=N)N)C(=O)N[C@@H](Cc1ccccc1)C(=O)NCCC(N)=O [H2NC(NH)-Tyr-D-Arg-Phe-NHCH2CH2CONH2]
ED50(mg/kg) p.o. (Mice): 10.7 mg/kg
ED50(mg/kg) s.c. (Mice): 0.13 mg/kg

From patent EP0755942B1, “N-AMIDINO […]” (DAIICHI PHARMACEUTICAL CO., LTD., priority 1994, dated 1995)
